SMILES strings stand for the structures. Structures can show the parent of a compound that is named as a salt. A value given as a limit tells only on which side of the number the result lay.

In the test the target is T1, human IKK-β (Homo sapiens, UniProt O14920).
T1 construct: A cDNA fragment encoding human IKK-β open reading frame was generated by PCR; His tag (from pcDNA3.1/His C); made in house; host or cells: Sf21 insect cells (baculovirus); substrate made in E. coli
T1 sequence (O14920 1-756): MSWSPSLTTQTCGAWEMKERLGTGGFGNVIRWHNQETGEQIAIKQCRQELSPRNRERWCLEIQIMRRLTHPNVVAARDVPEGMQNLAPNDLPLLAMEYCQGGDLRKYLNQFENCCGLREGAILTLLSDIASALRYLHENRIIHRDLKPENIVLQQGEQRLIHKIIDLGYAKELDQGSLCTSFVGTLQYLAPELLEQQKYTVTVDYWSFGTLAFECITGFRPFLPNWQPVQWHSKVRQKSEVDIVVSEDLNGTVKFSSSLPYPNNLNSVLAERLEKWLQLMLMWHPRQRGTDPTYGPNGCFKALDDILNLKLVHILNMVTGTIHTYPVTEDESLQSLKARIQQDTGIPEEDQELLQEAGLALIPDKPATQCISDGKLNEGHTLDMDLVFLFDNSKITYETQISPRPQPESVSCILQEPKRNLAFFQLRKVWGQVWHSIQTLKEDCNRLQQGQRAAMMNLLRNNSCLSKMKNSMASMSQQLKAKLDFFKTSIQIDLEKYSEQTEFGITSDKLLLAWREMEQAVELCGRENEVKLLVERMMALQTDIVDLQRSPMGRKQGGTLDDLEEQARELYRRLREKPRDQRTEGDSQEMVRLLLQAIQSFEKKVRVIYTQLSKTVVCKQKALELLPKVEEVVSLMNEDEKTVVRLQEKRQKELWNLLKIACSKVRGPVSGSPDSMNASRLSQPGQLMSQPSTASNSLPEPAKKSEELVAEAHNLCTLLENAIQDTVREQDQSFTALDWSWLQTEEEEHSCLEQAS
Briefly: IKK-β kinase inhibitory assay. The test is classed as biochemical. Conditions: compounds as yielded by solid phase synthesis, purity about 40 to 90%, read-out: In vitro activity grade (In vitro IC50). An excerpt:
[IKK-β Kinase Inhibitory Assay]
(1) Preparation of IKK-β Kinase Protein.
• A cDNA fragment encoding human IKK-β open reading frame was generated by PCR with the use of a pair of primers designed from the published sequence (Woronicz J D et al. (1997) Science 278, 866-869). A template was obtained from Quickclone cDNA (Clontech) using Elongase™ Amplification kit (Life Technologies). The DNA fragments generated by PCR were gel-purified and subcloned into pBluescript. The cDNA fragment cloned in pBluescript was inserted into pcDNA3.1/His C KpnI/NotI, and transferred into pVL1393 SmaI/XbaI (Pharmingen) to construct a baculovirus transfer vector. Then the vector, together with the linearized baculovirus (BaculoGold™, Pharmingen) was used to transfect Sf21 cells (Invitrogen, San Diego, Calif.). Generated recombinant baculovirus was cloned and amplified in Sf21 cells, grown in TNM-FH insect cell medium (Life Technologies, Inc.) supplemented with 10% FCS, […] Gentamycin, 0.1% Pluronic F-68 (Life Technologies, Inc.) as suspension culture (200 ml in 1 L Erlenmeyer flask; 27° C.; 130 rpm). Sf21 cells were infected with this amplified virus with a multiplicity of infection of 5 following standard protocols (Crossen R, Gruenwald S (1997) Baculovirus Expression Vector System Instruction Manual, Pharmingen Corporation) and harvested 48 hrs later. The cells were lysed to obtain the produced chimeric protein of IKK-β kinase fused by histidine (His-tagged IKK-beta). (2) The Preparation of Purified GST-IκBα Fusion Proteins • An expression vector containing the nucleotide sequence encoding fusion protein of GST with amino acid residues 1 to 54 of IκBα under the control of an IPTG-inducible promoter was constructed. The expression vector was introduced in E. coli and the transformant was cultured and lysed to obtain a GST-IκBα fusion protein. Then the resulting GST-IκBα fusion protein was purified and biotinated for kinase assay. (3) The Measurement of IKK-β Kinase Activity • The 96-well format kinase assay of IKK-β were performed to test the inhibitory activity of the compounds of the present invention. First, 5 μl of a test compound was put in the presence of 2.5% dimethyl sulfoxide (DMSO) in each well in a U-bottomed 96-well plate (Falcon). For control wells of background (BG) and total phosphorylation (TP), 5 μl of 2.5% DMSO was put. Recombinant IKK-β (final 0.6 μg/ml) and bio-GST-IκBα (1-54) (final 0.2 μM) were diluted in 25 μl of 2×kinase buffer β (40 mM Tris-HCl, pH 7.6, 40 mM MgCl2, 40 mM β-glycerophosphate, 40 mM p-nitrophenylphosphate, 2 mM EDTA, 40 mM creatine phosphate, 2 mM DTT, 2 mM Na3VO4, 0.2 mg/ml BSA and 0.8 mM phenylmethylsulfonyl fluoride) and transferred to the 96-well plate. Bio-GST-IκBα (1-54) in 25 μl of 2×kinase buffer β without IKK-β was transferred to BG wells. Then 20 μl of 12.5 μM ATP, 62.5 μCi/ml [γ-^33P] ATP (Amersham Pharmacia Biotech) was added and the resulting mixture was incubated for 2 hrs at room temperature. The kinase reactions were terminated by the addition of 150 μl of termination buffer (100 mM EDTA, 1 mg/ml BSA, 0.2 mg NaN3). One hundred and fifty μl of the sample were transferred to a streptavidin-coated, white MTP (Steffens Biotechniche Analysen GmbH #08114E14.FWD) to capture the biotinylated substrates. After 1 hr of incubation, non-bound radioactivity was eliminated by washing the wells five times with 300 μl of washing buffer including 0.9% NaCl and 0.1% (w/v) Tween-20 with the use of a MW-96 plate washer (BioTec). The bound radioactivity was determined after the addition of 170 μl MicroScint-PS scintillation cocktail (Packard) using a TopCount scintillation counter. [Syk Tyrosine Kinase Inhibitory Assay for Selectivity] (1) Preparation of Syk Protein • A cDNA fragment encoding human Syk openreading frame was cloned from total RNA of human Burkitt's lymphoma B cell lines, Raji (American Type Culture Collection), with the use of RT-PCR method.
Take `CC(=O)Nc1nc(-c2c(O)cccc2OCC2CC2)cc(C2CCNCC2)c1C#N` [Example 6-2, N-[3-cyano-6-[2-(cyclopropylmethoxy)-6-hydroxyphenyl]-4-(4-piperidinyl)-2-pyridinyl]acetamide hydrochloride]: the IC50 was under 0.5 µM.

`NC(=O)c1c(C2CCCNC2)cc(-c2ccccc2O)nc1N` (centres unmarked) [Example 7-1, 2-amino-6-(2-hydroxyphenyl)-4-(3-piperidinyl)nicotinamide hydrochloride]: the IC50 is under 0.5 µM. Take `O=c1[nH]c(=O)c2c(C3CCCNC3)cc(-c3ccccc3O)nc2[nH]1` (centres unmarked) [Example 7-2, 7-(2-hydroxyphenyl)-5-(3-piperidinyl)pyrido[2,3-d]pyrimidine-2,4(1H,3H)-dione hydrochloride]: the IC50 is under 0.5 µM.

Regarding `O=c1[nH]c2nc(-c3ccccc3O)cc(C3CCCNC3)c2c(=O)n1-c1ccccc1` (centres unmarked) [Example 7-3, 7-(2-hydroxyphenyl)-3-phenyl-5-(3-piperidinyl)pyrido[2,3-d]pyrimidine-2,4(1H,3H)-dione hydrochloride], the IC50 lay within 0.5 to 2 µM. Next, `Nc1nc(-c2ccccc2O)cc2c1C(=O)N1CCCC2C1` (centres unmarked) [Example 8-1, 6-amino-4-(2-hydroxy-phenyl)-5,9-diaza-tricyclo[7.3.1.0^2,7]trideca-2(7),3,5-trien-8-one]: 0.5 to 2 µM; `CNC(=O)c1c(C2CCCNC2)cc(-c2ccccc2O)nc1N` (centres unmarked) [Example 8-2, 2-amino-6-(2-hydroxyphenyl)-N-methyl-4-(3-piperidinyl)nicotinamide hydrochloride]: 0.5 to 2 µM; `CNC(=O)c1c(C2CCCNC2)cc(-c2c(O)cccc2OCC2CC2)nc1N` (centres unmarked) [Example 8-3, 2-amino-6-[2-(cyclopropylmethoxy)-6-hydroxyphenyl]-N-methyl-4-(3-piperidinyl)nicotinamide hydrochloride]: under 0.5 µM. Next, `CC(C)(C)OC(=O)c1c(C2CCCNC2)cc(-c2ccccc2O)nc1N` (centres unmarked) [Example 9-1, tert-butyl 2-amino-6-(2-hydroxyphenyl)-4-(3-piperidinyl)nicotinate hydrochloride]: under 0.5 µM. Turning to `Nc1nc(-c2ccccc2O)cc(C2CCCNC2)c1C(=O)O` (centres unmarked) [Example 9-2, 2-amino-6-(2-hydroxyphenyl)-4-(3-piperidinyl)nicotinic acid hydrochloride], the IC50 was under 0.5 µM. Consider `Nc1nc(-c2c(O)cccc2OCC2CC2)cc(C2CCCNC2)c1C(=O)O` (centres unmarked) [Example 9-3, 2-amino-6-[2-(cyclopropylmethoxy)-6-hydroxyphenyl]-4-(3-piperidinyl)nicotinic acid hydrochloride], for which the IC50 is under 0.5 µM. In the case of `Cn1c(=O)[nH]c2nc(-c3ccccc3O)cc(C3CCCNC3)c2c1=O` (centres unmarked) [Example 10-1, 7-(2-hydroxy-phenyl)-3-methyl-5-piperidin-3-yl-1H-pyrido[2,3-d]pyrimidine-2,4-dione hydrochloride], the IC50 is under 0.5 µM. As for `Nc1nc(-c2ccccc2O)cc(C2CCCNC2)c1CO` (centres unmarked) [Example 11-1, 2-[6-amino-5-(hydroxymethyl)-4-(3-piperidinyl)-2-pyridinyl]phenol hydrochloride], the IC50 is under 0.5 µM. On to `Nc1nc(-c2c(O)cccc2F)cc(C2CCCNC2)c1CO` (centres unmarked) [Example 11-2, 2-[6-amino-5-(hydroxymethyl)-4-(3-piperidinyl)-2-pyridinyl]-3-fluorophenol hydrochloride], for which the IC50 was under 0.5 µM. For `Nc1nc(-c2ncccc2O)cc(C2CCCNC2)c1CO` (centres unmarked) [Example 11-3, 6′-amino-5′-(hydroxymethyl)-4′-3-piperidinyl)-2,2′-bipyridin-3-ol hydrochloride] the value was under 0.5 µM; for `Nc1nc(-c2ccccc2O)cc(C2=CCCNC2)c1CO` [Example 11-4, 2-[6′-amino-5′-(hydroxymethyl)-1,2,5,6-tetrahydro-3,4′-bipyridin-2′-yl]phenol hydrochloride], under 0.5 µM. For the compound `Nc1nc(-c2c(O)cccc2OCC2CC2)cc(C2CCCNC2)c1CO` (centres unmarked) [Example 12-1, 2-[6-amino-5-(hydroxymethyl)-4-(3-piperidinyl)-2-pyridinyl]-3-(cyclopropylmethoxy)phenol hydrochloride], the IC50 was under 0.5 µM. Regarding `COCc1c(C2CCCNC2)cc(-c2ccccc2O)nc1N` (centres unmarked) [Example 13-1, 2-[6-amino-5-(methoxymethyl)-4-(3-piperidinyl)-2-pyridinyl]phenol hydrochloride], the IC50 is under 0.5 µM.

As for `Cc1c(C2CCCNC2)cc(-c2ccccc2O)nc1N` (centres unmarked) [Example 14-1, 2-[6-amino-5-methyl-4-(3-piperidinyl)-2-pyridinyl]phenol hydrochloride], the IC50 was under 0.5 µM. `CC(O)c1c(C2CCCNC2)cc(-c2ccccc2O)nc1N` (centres unmarked) [Example 15-1, 2-[6-amino-5-(1-hydroxyethyl)-4-(3-piperidinyl)-2-pyridinyl]phenol hydrochloride]: the IC50 was under 0.5 µM.

For the compound `Nc1nc(-c2ccccc2O)cc(C2CCCNC2)c1C(O)c1ccccc1` (centres unmarked) [Example 15-2, 2-[6-amino-5-[hydroxy(phenyl)methyl]-4-(3-piperidinyl)-2-pyridinyl]phenol hydrochloride], the IC50 was under 0.5 µM. Next, `CC(=O)c1c(C2CCCNC2)cc(-c2ccccc2O)nc1N` (centres unmarked) [Example 15-3, 1-[2-amino-6-(2-hydroxyphenyl)4-(3-piperidinyl)-3-pyridinyl]ethanone hydrochloride]: under 0.5 µM; `Oc1ccccc1-c1cc(C2CCCNC2)c2cn[nH]c2n1` (centres unmarked) [Example 16-1, 2-(4-Piperidin-3-yl-1H-pyrazolo[3,4-b]pyridin-6-yl)-phenol hydrochloride]: 0.5 to 2 µM; `Oc1cccc(OCC2CC2)c1-c1cc(C2CCCNC2)c2c(n1)NCOC2` (centres unmarked) [Example 17-1, 3-(cyclopropylmethoxy)-2-[5-(3-piperidinyl)-1,4-dihydro-2H-pyrido[2,3-d][1,3]oxazin-7-yl]-phenol hydrochloride]: under 0.5 µM.
